Results published in BindingDB's records for patent US12128018 (Kdac Therapeutics, 2024).

Columns and labels:
Test in all cases: Inhibition of Histone Deacetylase Enzymatic Activity
[1] = molecular target: Histone deacetylase 9 (Homo sapiens, UniProt Q9UKV0)
Method: (§1) Its final concentration in the assay for HDACs 1,2,3,6 is 2 μM.Substrate B was prepared as 2 mM in 100% DMSO. Its final concentration in the assay for HDACs 4,5,7,8,9 is 2 μM.LBH was used as quench inhibitor to stop the reaction at the end point.

[2] = molecular target: Histone deacetylase 4 (Homo sapiens, UniProt P56524)
Method: as §1

[3] = molecular target: T1, Histone deacetylase 7 (Homo sapiens, UniProt Q8WUI4)
T1 sequence (Q8WUI4 whole entry): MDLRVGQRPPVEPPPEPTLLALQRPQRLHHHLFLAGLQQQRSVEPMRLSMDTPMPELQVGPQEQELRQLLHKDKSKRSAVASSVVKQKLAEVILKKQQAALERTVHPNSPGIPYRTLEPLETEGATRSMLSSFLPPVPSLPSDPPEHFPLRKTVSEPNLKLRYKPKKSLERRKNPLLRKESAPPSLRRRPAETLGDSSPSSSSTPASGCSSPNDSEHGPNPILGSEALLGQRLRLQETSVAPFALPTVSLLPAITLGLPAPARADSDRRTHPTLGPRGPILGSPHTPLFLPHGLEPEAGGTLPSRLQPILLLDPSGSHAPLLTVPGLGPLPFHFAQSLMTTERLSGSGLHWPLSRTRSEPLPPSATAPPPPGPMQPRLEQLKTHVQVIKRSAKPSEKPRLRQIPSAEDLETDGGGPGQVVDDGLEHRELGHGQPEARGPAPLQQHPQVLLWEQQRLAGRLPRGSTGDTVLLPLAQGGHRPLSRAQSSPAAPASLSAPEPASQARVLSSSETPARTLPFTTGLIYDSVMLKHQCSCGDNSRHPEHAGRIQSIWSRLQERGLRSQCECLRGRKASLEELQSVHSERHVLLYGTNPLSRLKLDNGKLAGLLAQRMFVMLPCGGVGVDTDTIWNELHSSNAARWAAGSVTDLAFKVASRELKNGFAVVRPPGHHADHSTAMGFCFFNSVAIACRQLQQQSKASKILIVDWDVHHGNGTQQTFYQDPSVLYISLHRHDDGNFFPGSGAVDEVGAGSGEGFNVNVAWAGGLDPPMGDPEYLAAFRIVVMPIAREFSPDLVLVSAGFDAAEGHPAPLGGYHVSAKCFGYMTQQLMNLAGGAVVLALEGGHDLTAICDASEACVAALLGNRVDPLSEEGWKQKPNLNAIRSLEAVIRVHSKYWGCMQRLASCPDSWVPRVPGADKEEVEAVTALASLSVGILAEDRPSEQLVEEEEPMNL
Method: as §1

[4] = molecular target: Histone deacetylase 5 (Homo sapiens, UniProt Q9UQL6)
Method: as §1

[5] = molecular target: T2, Histone deacetylase 8 (Homo sapiens, UniProt Q9BY41)
T2 sequence (Q9BY41 whole entry): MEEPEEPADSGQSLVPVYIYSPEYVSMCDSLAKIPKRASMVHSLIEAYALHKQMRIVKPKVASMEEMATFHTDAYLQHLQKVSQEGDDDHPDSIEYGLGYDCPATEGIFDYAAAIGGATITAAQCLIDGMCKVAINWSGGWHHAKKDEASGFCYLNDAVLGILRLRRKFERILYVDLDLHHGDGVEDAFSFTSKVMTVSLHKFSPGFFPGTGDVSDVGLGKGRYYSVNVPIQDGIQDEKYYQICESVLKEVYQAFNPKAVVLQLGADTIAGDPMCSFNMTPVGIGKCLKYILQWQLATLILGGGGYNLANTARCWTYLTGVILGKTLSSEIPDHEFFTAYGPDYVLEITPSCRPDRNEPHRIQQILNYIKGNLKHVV
Method: as §1

[6] = molecular target: T3, Histone deacetylase 6 (Homo sapiens, UniProt Q9UBN7)
T3 sequence (Q9UBN7 whole entry): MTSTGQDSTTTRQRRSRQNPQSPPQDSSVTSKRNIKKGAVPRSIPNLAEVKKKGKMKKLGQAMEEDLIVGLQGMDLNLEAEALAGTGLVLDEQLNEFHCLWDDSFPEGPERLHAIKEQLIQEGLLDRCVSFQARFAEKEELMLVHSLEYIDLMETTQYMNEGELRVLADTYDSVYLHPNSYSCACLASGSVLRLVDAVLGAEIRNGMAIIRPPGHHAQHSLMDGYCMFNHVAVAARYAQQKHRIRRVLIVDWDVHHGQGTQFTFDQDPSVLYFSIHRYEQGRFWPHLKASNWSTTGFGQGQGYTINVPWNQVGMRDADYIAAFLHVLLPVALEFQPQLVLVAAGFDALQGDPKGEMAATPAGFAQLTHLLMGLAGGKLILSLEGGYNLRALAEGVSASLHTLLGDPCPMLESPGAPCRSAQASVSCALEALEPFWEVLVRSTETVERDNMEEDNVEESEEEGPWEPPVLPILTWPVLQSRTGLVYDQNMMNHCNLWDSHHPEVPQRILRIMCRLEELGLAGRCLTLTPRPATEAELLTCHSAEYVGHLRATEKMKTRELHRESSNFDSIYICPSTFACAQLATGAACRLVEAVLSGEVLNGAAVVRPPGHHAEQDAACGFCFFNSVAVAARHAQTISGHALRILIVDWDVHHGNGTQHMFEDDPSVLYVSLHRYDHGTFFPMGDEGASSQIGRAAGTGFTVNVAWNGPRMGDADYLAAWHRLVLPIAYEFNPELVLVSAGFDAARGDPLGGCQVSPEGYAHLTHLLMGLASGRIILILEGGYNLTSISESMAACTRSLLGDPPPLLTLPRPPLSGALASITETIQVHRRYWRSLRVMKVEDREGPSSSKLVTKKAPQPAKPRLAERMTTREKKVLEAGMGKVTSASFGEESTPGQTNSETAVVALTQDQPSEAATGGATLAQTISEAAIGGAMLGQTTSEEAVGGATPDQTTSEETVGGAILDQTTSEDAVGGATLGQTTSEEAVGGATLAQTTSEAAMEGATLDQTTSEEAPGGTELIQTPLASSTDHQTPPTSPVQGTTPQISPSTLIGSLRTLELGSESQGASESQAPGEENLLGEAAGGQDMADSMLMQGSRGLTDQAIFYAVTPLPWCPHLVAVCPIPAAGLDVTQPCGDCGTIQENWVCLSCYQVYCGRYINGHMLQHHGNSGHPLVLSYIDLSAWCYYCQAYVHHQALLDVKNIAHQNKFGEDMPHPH
Method: as §1

Measured: IC50

Histone deacetylase 5, sequence (Q9UQL6 whole entry): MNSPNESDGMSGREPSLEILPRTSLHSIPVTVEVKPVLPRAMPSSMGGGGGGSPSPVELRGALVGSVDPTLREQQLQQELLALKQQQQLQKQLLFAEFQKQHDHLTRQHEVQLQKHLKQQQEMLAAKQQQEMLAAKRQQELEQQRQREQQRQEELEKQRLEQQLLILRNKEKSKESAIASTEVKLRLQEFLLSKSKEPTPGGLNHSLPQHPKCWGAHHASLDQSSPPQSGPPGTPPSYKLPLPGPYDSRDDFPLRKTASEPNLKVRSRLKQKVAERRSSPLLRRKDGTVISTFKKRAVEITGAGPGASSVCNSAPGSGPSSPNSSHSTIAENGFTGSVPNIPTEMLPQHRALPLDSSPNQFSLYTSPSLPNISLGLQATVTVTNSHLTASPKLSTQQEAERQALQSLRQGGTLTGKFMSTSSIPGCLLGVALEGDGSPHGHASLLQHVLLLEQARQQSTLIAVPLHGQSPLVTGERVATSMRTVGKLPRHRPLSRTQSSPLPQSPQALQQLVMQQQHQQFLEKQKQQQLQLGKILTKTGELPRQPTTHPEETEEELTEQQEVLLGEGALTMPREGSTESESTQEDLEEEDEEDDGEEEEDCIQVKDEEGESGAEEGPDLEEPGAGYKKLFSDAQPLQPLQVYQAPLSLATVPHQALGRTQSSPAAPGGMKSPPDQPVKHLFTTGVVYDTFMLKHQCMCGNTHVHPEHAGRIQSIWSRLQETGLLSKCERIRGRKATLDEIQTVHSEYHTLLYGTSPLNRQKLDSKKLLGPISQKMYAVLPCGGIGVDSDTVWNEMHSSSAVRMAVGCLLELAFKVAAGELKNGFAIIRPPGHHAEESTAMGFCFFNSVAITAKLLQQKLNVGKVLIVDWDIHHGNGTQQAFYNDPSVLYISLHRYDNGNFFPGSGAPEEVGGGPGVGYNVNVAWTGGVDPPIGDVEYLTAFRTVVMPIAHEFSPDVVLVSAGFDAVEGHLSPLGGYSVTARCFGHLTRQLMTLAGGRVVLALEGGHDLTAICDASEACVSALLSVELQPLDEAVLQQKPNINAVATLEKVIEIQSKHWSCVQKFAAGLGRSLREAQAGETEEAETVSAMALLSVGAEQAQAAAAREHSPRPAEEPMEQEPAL
Histone deacetylase 4, sequence (P56524 whole entry): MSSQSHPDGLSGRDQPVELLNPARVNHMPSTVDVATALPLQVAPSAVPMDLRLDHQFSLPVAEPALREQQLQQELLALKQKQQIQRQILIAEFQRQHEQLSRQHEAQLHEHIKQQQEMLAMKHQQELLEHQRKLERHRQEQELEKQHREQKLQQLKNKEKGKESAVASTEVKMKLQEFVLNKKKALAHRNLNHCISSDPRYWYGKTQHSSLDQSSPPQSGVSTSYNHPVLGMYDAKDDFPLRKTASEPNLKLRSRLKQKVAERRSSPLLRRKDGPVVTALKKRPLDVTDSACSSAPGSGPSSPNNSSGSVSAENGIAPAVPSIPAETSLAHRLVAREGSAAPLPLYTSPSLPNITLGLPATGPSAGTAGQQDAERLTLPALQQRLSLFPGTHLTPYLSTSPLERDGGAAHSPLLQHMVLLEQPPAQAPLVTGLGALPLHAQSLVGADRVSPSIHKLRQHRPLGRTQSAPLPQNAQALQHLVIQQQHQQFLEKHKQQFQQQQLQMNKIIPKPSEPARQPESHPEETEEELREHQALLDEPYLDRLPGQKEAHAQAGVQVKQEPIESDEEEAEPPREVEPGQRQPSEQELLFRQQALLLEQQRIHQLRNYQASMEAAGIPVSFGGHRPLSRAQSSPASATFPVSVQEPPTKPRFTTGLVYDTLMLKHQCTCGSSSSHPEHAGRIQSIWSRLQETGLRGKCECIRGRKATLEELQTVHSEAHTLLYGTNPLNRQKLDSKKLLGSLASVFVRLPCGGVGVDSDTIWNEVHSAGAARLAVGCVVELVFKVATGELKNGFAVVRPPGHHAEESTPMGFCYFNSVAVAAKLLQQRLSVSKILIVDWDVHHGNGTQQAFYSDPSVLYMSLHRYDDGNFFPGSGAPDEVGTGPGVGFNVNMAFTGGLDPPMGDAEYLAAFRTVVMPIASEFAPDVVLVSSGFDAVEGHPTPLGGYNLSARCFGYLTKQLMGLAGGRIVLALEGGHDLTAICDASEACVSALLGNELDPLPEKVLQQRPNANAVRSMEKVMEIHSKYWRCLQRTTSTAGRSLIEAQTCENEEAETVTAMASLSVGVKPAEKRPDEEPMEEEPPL
Histone deacetylase 9, sequence (Q9UKV0 whole entry): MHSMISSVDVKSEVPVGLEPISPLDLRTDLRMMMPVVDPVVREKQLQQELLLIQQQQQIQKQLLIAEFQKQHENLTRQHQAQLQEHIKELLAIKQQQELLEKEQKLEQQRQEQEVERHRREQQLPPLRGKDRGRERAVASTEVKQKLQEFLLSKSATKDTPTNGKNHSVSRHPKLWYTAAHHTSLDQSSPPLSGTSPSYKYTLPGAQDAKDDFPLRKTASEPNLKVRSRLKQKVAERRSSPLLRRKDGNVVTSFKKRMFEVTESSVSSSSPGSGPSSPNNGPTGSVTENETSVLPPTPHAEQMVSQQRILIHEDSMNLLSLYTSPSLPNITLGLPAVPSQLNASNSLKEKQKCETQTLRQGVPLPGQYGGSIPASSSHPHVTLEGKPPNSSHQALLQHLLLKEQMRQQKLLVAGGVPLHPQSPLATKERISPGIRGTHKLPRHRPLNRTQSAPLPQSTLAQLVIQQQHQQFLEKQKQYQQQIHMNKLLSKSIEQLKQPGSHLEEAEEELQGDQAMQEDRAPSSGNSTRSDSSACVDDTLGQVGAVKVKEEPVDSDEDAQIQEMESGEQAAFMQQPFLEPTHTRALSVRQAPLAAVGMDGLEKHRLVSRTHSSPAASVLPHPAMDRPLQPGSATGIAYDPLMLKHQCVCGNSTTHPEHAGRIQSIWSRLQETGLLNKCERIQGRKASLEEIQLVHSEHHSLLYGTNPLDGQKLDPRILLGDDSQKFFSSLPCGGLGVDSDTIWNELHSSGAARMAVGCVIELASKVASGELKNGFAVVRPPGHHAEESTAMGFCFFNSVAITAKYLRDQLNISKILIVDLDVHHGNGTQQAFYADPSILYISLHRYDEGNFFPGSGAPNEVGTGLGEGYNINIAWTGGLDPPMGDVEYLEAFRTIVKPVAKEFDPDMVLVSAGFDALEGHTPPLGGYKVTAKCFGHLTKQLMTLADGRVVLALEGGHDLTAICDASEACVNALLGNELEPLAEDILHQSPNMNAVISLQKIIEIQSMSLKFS

CC(=O)Nc1ccc(C(=O)Nc2ccc(F)cc2N)cc1 [US12128018, Compound I-1]
> 30 µM: all assays above
